In patent US8680113B2, “BMI-1 protein expression modulators” (PTC Therapeutics, Inc., priority 2008, dated 2014):
Like-named read-outs stand apart in the source and are kept apart here.

Columns and labels:
Bmi-1 [1] = test: Cell Model Assay: Bmi-1 expression in U87-MG; type: cell-based; details: U87-MG (glioblastoma)
Description: (§1) Using assay conditions known to those skilled in the art, the ability of the compounds described herein to reduce Bmi-1 expression in HT1080 (fibrosarcoma), U87-MG (glioblastoma), T98G (glioblastoma), K562 (chronic myelogenous leukemia) and KG1 (acute myelogenous leukemia) cell lines was tested (at test compound concentrations calculated from the ELISA assay data shown in Example 1) compared to puromycin as a control to provide the EC50 values shown in Table 2. The term “ND” means that data was not determined.

MCL-Rec1 = test: Mantle Cell Lymphoma Assay: cytotoxicity, Rec-1; type: cell-based; details: 72 hrs; for viability at 0.004 µM / viability at 0.037 µM / viability at 0.11 µM / viability at 0.33 µM / viability at 1 µM / viability at 3 µM: Homo sapiens, read-out: Cell Viability (%)
Description: MCL cell lines Jeko, Mino, and Rec-1 were provided by American Type Culture Collection: The Bioresource Center (Manassas, Va.). […] Carlsbad, Calif.) in T-75 culture flasks. Cell concentration was maintained between 2 to 3×10^5 cells/mL. Early passage cells (passages 2-4) were used for all experiments. Ficoll-Histopaque density sedimentation (Sigma Aldrich) was used for separation of debris and purification of cell lines prior to experiments. […] The cytotoxic effect of test compounds on the MCL-cell lines was assessed by measuring cell concentration and cell viability using a Beckman Coulter Vi-Cell Counter. Controls and treated cells were harvested and counted at day 3.

[2] = tested on: Jeko, Mino and Rec-1 cells; test: cells; type: cell-based; details: 72 h, read-out: decrease in cell viability
Bmi-1 [3] = test: Cell Model Assay: Bmi-1 expression in HT1080; type: cell-based, human; details: HT1080 (fibrosarcoma)
Description: as §1

Bmi-1 [4] = test: Sandwich ELISA Assay (Bmi-1 ELISA in HT-1080 cells); type: cell-based, human
Method in brief: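 Lysate Bmi-1 was quantified against a recombinant GST-Bmi-1 standard (0-8000 pg/mL) by sandwich ELISA read at OD450 with OD570 reference. The ELISA used mouse monoclonal capture, rabbit anti-Bmi-1, HRP anti-rabbit IgG and TMB. Before lysis, HT-1080 cells seeded at 8000/well were exposed to compounds for 40-48 h at 37°C with 0.5% final DMSO.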

MM cell line = test: Multiple Myeloma Assay; type: cell-based; details: 72 hrs in culture

SMILES | EC50 (Bmi-1 [1]) [µM] | viability at 0.004 µM (MCL-Rec1; MCL-Rec1, 0.004 μM) [%] | viability at 0.037 µM (MCL-Rec1; MCL-Rec1, 0.037 μM) [%] | viability at 0.11 µM (MCL-Rec1; MCL-Rec1, 0.11 μM) [%] | viability at 0.33 µM (MCL-Rec1; MCL-Rec1, 0.33 μM) [%] | viability at 1 µM (MCL-Rec1; MCL-Rec1, 1 μM) [%] | viability at 3 µM (MCL-Rec1; MCL-Rec1, 3 μM) [%] | Cell Concentration (×10^6) (MCL-Rec1; MCL-Rec1, 0.004 μM) | Cell Concentration (×10^6) (MCL-Rec1; MCL-Rec1, 0.037 μM) | Cell Concentration (×10^6) (MCL-Rec1; MCL-Rec1, 0.11 μM) | Cell Concentration (×10^6) (MCL-Rec1; MCL-Rec1, 0.33 μM) | Cell Concentration (×10^6) (MCL-Rec1; MCL-Rec1, 1 μM) | Cell Concentration (×10^6) (MCL-Rec1; MCL-Rec1, 3 μM) | EC50 (Bmi-1 [3]) [µM] | IC50 (Bmi-1 [4]) [µM] | Cell Concentration, MM cell line (MM cell line; dose 0.004 μM) | viability at 0.004 µM (MM cell line; dose 0.004 μM) [%] | Cell Concentration, MM cell line (MM cell line; dose 0.037 μM) | viability at 0.037 µM (MM cell line; dose 0.037 μM) [%] | Cell Concentration, MM cell line (MM cell line; dose 0.11 μM) | further results
COc1cc(Br)c(Nc2nc(-c3c(C)nc4ncccn34)cs2)c(Br)c1 [Cpd 1, N-(2,6-dibromo-4-methoxyphenyl)-4-(2-methylimidazo[1,2-a]pyrimidin-3-yl)thiazol-2-amine] | 0.42 | 91.9 ± 0.5 | 91.7 ± 0.4 | 91.7 ± 0.2 | 90.9 ± 0.2 | 85 ± 0.6 | 56.3 ± 0.4 | 1.66 ± 0.12 ×10^6 | 1.74 ± 0.05 ×10^6 | 1.73 ± 0.02 ×10^6 | 1.66 ± 0.01 ×10^6 | 0.96 ± 0.08 ×10^6 | 0.32 ± 0.01 ×10^6 | 0.39 | < 0.5 | 1.02 ± 0.03 ×10^6 | 90.07 ± 0.34 | 1.06 ± 0.01 ×10^6 | 89.53 ± 0.71 | 1.13 ± 0.02 ×10^6 | cytotoxicity at 0.08 µM ([2]; Jeko, Mino and Rec-1 cells, 80 nM, 75 nM and 80 nM, after 3 days of treatment): 70 to 90%; viability at 0.11 µM (MM cell line; dose 0.11 μM): 90.33 ± 0.1%; Cell Concentration, MM cell line (MM cell line; dose 0.33 μM): 1.10 ± 0.02 ×10^6; viability at 0.33 µM (MM cell line; dose 0.33 μM): 90.63 ± 0.28%; Cell Concentration, MM cell line (MM cell line; dose 1 μM): 0.54 ± 0.03 ×10^6; viability at 1 µM (MM cell line; dose 1 μM): 85.4 ± 0.58%; Cell Concentration, MM cell line (MM cell line; dose 3 μM): 0.39 ± 0.02 ×10^6; viability at 3 µM (MM cell line; dose 3 μM): 79.03 ± 0.45%
COc1ccc(Nc2nc(-c3c(C)nc4ncccn34)cs2)cc1 [Cpd 14, N-(4-methoxyphenyl)-4-(2-methylimidazo[1,2-a]pyrimidin-3-yl)thiazol-2-amine] | 0.008 | 88.1 ± 0.88 | 84.5 ± 0.66 | 34.4 ± 3.25 | 8.93 ± 0.15 | 9.83 ± 0.33 | 9.5 ± 0.35 | 1.52 ± 0.02 ×10^6 | 1.22 ± 0.02 ×10^6 | 0.24 ± 0.03 ×10^6 | 0.05 ± 0.00 ×10^6 | 0.05 ± 0.00 ×10^6 | 0.05 ± 0.00 ×10^6 | 0.003 | < 0.5 | 0.84 ± 0.01 ×10^6 | 84.53 ± 0.4 | 0.22 ± 0.00 ×10^6 | 54.4 ± 0.98 | 0.21 ± 0.01 ×10^6 | cytotoxicity at 0.08 µM [2]: 70 to 90%; viability at 0.11 µM (MM cell line; dose 0.11 μM): 54.9 ± 2.79%; Cell Concentration, MM cell line (MM cell line; dose 0.33 μM): 0.21 ± 0.01 ×10^6; viability at 0.33 µM (MM cell line; dose 0.33 μM): 57.7 ± 1.33%; Cell Concentration, MM cell line (MM cell line; dose 1 μM): 0.24 ± 0.01 ×10^6; viability at 1 µM (MM cell line; dose 1 μM): 60.9 ± 1.26%; Cell Concentration, MM cell line (MM cell line; dose 3 μM): 0.25 ± 0.01 ×10^6; viability at 3 µM (MM cell line; dose 3 μM): 59.9 ± 1.32%
